{"source": "PubChem BioAssay (NCI)", "experiment_in_all_cases": "NCI anticancer screen, dose series, 48 h", "key": {"NCI-H522 lung": {"test_system": "NCI-H522 lung"}, "SK-MEL-5 melanoma": {"test_system": "SK-MEL-5 melanoma"}, "OVCAR-3 ovarian": {"test_system": "OVCAR-3 ovarian"}, "A498 renal": {"test_system": "A498 renal"}, "SNB-75 CNS": {"test_system": "SNB-75 CNS"}, "HCT-15 colon": {"test_system": "HCT-15 colon"}, "MDA-MB-435": {"test_system": "MDA-MB-435"}, "OVCAR-5 ovarian": {"test_system": "OVCAR-5 ovarian"}, "HOP-92 NSCLC": {"test_system": "HOP-92 NSCLC"}, "CCRF-CEM leukemia": {"test_system": "CCRF-CEM leukemia"}, "MDA-MB-231 breast": {"test_system": "MDA-MB-231 breast"}, "SF-295 CNS": {"test_system": "SF-295 CNS"}, "HT29 colon": {"test_system": "HT29 colon"}, "SF-268 CNS": {"test_system": "SF-268 CNS"}, "CAKI-1 renal": {"test_system": "CAKI-1 renal"}, "UACC-257 melanoma": {"test_system": "UACC-257 melanoma"}, "SK-OV-3 ovarian": {"test_system": "SK-OV-3 ovarian"}, "HL-60(TB) leukemia": {"test_system": "HL-60(TB) leukemia"}, "HOP-62 NSCLC": {"test_system": "HOP-62 NSCLC"}, "NCI-H23 lung": {"test_system": "NCI-H23 lung"}, "MALME-3M melanoma": {"test_system": "MALME-3M melanoma"}, "SK-MEL-28 melanoma": {"test_system": "SK-MEL-28 melanoma"}, "MDA-N": {"test_system": "MDA-N"}, "TK-10 renal": {"test_system": "TK-10 renal"}, "OVCAR-4 ovarian": {"test_system": "OVCAR-4 ovarian"}, "COLO 205 colon": {"test_system": "COLO 205 colon"}, "K-562 leukemia": {"test_system": "K-562 leukemia"}, "NCI/ADR-RES ovarian": {"test_system": "NCI/ADR-RES ovarian"}, "IGROV1 ovarian": {"test_system": "IGROV1 ovarian"}, "NCI-H460 lung": {"test_system": "NCI-H460 lung"}, "LXFL 529 NSCLC": {"test_system": "LXFL 529 NSCLC"}}, "note": "Where “and” joins values, the source holds several entries; their conditions need not be identical. Equal values may be shown once.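 1) Cells in 96-well plates. 2) Compound, 48 h, 5 concentrations. 3) Linear interpolation between surrounding doses. 4) Unreached endpoint = highest concentration. GI50: concentration for 50% inhibition of growth. TGI marks complete inhibition of growth.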", "data": [{"smiles": "O=C1C=C(N2CC2)C(=O)C=C1N1CC1", "values": [{"measurement": "TGI", "setting": "NCI-H522 lung", "value": "72.7 nM and 144 nM"}, {"measurement": "GI50", "setting": "SK-MEL-5 melanoma", "value": 15.5, "unit": "nM"}, {"measurement": "TGI", "setting": "SK-MEL-5 melanoma", "value": "72 nM and 307 nM"}, {"measurement": "GI50", "setting": "OVCAR-3 ovarian", "value": 153, "unit": "nM"}, {"measurement": "TGI", "setting": "OVCAR-3 ovarian", "value": "967 nM and 277 nM"}, {"measurement": "TGI", "setting": "A498 renal", "value": 158, "unit": "nM"}, {"measurement": "GI50", "setting": "SNB-75 CNS", "value": 7.36, "unit": "nM"}, {"measurement": "GI50", "setting": "HCT-15 colon", "value": 20.7, "unit": "nM"}, {"measurement": "TGI", "setting": "HCT-15 colon", "value": "231 nM and 1210 nM"}, {"measurement": "GI50", "setting": "MDA-MB-435", "value": 20.6, "unit": "nM"}, {"measurement": "GI50", "setting": "OVCAR-5 ovarian", "value": 78.4, "unit": "nM"}, {"measurement": "TGI", "setting": "OVCAR-5 ovarian", "value": "366 nM and 2200 nM"}, {"measurement": "GI50", "setting": "HOP-92 NSCLC", "value": 152, "unit": "nM"}, {"measurement": "TGI", "setting": "HOP-92 NSCLC", "value": "576 nM and 1560 nM"}, {"measurement": "GI50", "setting": "CCRF-CEM leukemia", "value": 5.68, "unit": "nM"}, {"measurement": "TGI", "setting": "CCRF-CEM leukemia", "value": 456, "unit": "nM"}, {"measurement": "GI50", "setting": "MDA-MB-231 breast", "value": 79.2, "unit": "nM"}, {"measurement": "GI50", "setting": "SF-295 CNS", "value": 38, "unit": "nM"}, {"measurement": "TGI", "setting": "SF-295 CNS", "value": "266 nM and 1300 nM"}, {"measurement": "GI50", "setting": "HT29 colon", "value": 18.5, "unit": "nM"}, {"measurement": "TGI", "setting": "HT29 colon", "value": 1400, "unit": "nM"}, {"measurement": "GI50", "setting": "SF-268 CNS", "value": 10.9, "unit": "nM"}, {"measurement": "TGI", "setting": "SF-268 CNS", "value": "299 nM and 1500 nM"}, {"measurement": "GI50", "setting": "CAKI-1 renal", "value": 0.251, "unit": "nM"}, {"measurement": "TGI", "setting": "CAKI-1 renal", "value": "24.7 nM and 67.5 nM"}, {"measurement": "GI50", "setting": "UACC-257 melanoma", "value": 121, "unit": "nM"}, {"measurement": "TGI", "setting": "UACC-257 melanoma", "value": "339 nM and 999 nM"}, {"measurement": "TGI", "setting": "SK-OV-3 ovarian", "value": 2190, "unit": "nM"}, {"measurement": "GI50", "setting": "HL-60(TB) leukemia", "value": 2.33, "unit": "nM"}, {"measurement": "TGI", "setting": "HL-60(TB) leukemia", "value": "510 nM and 197 nM"}, {"measurement": "GI50", "setting": "HOP-62 NSCLC", "value": 68.7, "unit": "nM"}, {"measurement": "TGI", "setting": "HOP-62 NSCLC", "value": 738, "unit": "nM"}, {"measurement": "GI50", "setting": "NCI-H23 lung", "value": 14.1, "unit": "nM"}, {"measurement": "TGI", "setting": "NCI-H23 lung", "value": "132 nM and 289 nM"}, {"measurement": "GI50", "setting": "MALME-3M melanoma", "value": 49.8, "unit": "nM"}, {"measurement": "TGI", "setting": "MALME-3M melanoma", "value": "234 nM and 238 nM"}, {"measurement": "GI50", "setting": "SK-MEL-28 melanoma", "value": 187, "unit": "nM"}, {"measurement": "TGI", "setting": "SK-MEL-28 melanoma", "value": "680 nM and 654 nM"}, {"measurement": "GI50", "setting": "MDA-N", "value": 113, "unit": "nM"}, {"measurement": "TGI", "setting": "MDA-N", "value": "274 nM and 1900 nM"}, {"measurement": "GI50", "setting": "TK-10 renal", "value": 208, "unit": "nM"}, {"measurement": "TGI", "setting": "TK-10 renal", "value": 772, "unit": "nM"}, {"measurement": "GI50", "setting": "OVCAR-4 ovarian", "value": 185, "unit": "nM"}, {"measurement": "TGI", "setting": "OVCAR-4 ovarian", "value": "983 nM and 613 nM"}, {"measurement": "GI50", "setting": "COLO 205 colon", "value": 34, "unit": "nM"}, {"measurement": "TGI", "setting": "COLO 205 colon", "value": "126 nM and 267 nM"}, {"measurement": "GI50", "setting": "K-562 leukemia", "value": 246, "unit": "nM"}, {"measurement": "TGI", "setting": "K-562 leukemia", "value": 2940, "unit": "nM"}, {"measurement": "GI50", "setting": "NCI/ADR-RES ovarian", "value": 24.1, "unit": "nM"}, {"measurement": "TGI", "setting": "IGROV1 ovarian", "value": 2480, "unit": "nM"}, {"measurement": "GI50", "setting": "NCI-H460 lung", "value": 5.21, "unit": "nM"}, {"measurement": "TGI", "setting": "NCI-H460 lung", "value": "200 nM and 781 nM"}, {"measurement": "TGI", "setting": "LXFL 529 NSCLC", "value": 527, "unit": "nM"}]}]}
